This note sets out measurements from patent EP0993459B1, “COMPOUNDS USEFUL FOR INHIBITION OF FARNESYL PROTEIN TRANSFERASE” (SCHERING CORPORATION, priority 1997, dated 1998).

Chain of farnesyl protein transferase (P49356 whole entry, one chain of several): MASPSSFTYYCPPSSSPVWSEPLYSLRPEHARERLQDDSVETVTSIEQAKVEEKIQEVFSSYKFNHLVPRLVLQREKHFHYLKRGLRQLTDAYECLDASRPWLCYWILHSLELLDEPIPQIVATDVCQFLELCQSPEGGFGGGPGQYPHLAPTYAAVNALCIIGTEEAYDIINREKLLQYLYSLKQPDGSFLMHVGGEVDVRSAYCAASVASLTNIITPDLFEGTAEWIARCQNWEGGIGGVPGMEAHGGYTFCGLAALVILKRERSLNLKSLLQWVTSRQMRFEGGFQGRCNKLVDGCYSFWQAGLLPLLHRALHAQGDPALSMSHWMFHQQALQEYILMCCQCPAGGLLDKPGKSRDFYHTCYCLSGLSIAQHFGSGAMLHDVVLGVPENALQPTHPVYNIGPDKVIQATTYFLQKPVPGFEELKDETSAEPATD

The first experiment concerns the target farnesyl protein transferase (Homo sapiens, UniProt P49354+P49356). In words: FPT IC50, inhibition of farnesyl protein transferase, in vitro enzyme assay (procedure of WO 95/10516). The experiment is classed as biochemical. To be noted: one range stated for the whole group of listed compounds, no individual values. As to the method:
(§1) FPT IC50 (inhibition of farnesyl protein transferase, in vitro enzyme assay) and COS Cell IC50 (Cell-Based Assay) were determined following the assay procedures described in WO 95/10516, published April 20, 1995. GGPT IC50 (inhibition of geranylgeranyl protein transferase, in vitro enzyme assay), Cell Mat Assay, and anti-tumor activity (in vivo anti-tumor studies) could be determined by the assay procedures described in WO 95/10516. The disclosure of WO 95/10516 is incorporated herein by reference thereto.
The compound `O=C([C@H]1CC[C@H](O)CC1)N1CCC([C@H]2c3ncc(Br)cc3CCc3cc(Cl)cc(Br)c32)CC1` [Compound 68.0] yielded a 50% inhibitory concentration (IC50) of at least 1.9 nM.

In the case of `O=C(CN1CCC2(CC1)OCCO2)N1CCC([C@H]2c3ncc(Br)cc3CCc3cc(Cl)cc(Br)c32)CC1` [Compound 24.0], the IC50 was at least 1.9 nM.

The compound `O=C(O)CON=C1CCC(CC(=O)N2CCC([C@H]3c4ncc(Br)cc4CCc4cc(Cl)cc(Br)c43)CC2)CC1` (some centres unmarked) [Compound 31.0] displayed a 50% inhibitory concentration (IC50) of at least 1.9 nM.

In the case of `O=C(C1CCC2(CC1)OCCO2)N1CCC([C@H]2c3ncc(Br)cc3CCc3cc(Cl)cc(Br)c32)CC1` [Compound 34.0], the IC50 is at least 1.9 nM.

Turning to `O=C1CCN(CC(=O)N2CCC([C@H]3c4ncc(Br)cc4CCc4cc(Cl)cc(Br)c43)CC2)CC1` [Compound 14.0], the half-maximal inhibitory concentration (IC50) was at least 1.9 nM.

In turn, `O=C(CN1CCC(=NO)CC1)N1CCC([C@H]2c3ncc(Br)cc3CCc3cc(Cl)cc(Br)c32)CC1` [Compound 26.0] registered a 50% inhibitory concentration (IC50) of at least 1.9 nM.

In the case of `O=C(CC1CCC(=NO)CC1)N1CCC([C@H]2c3ncc(Br)cc3CCc3cc(Cl)cc(Br)c32)CC1` (some centres unmarked) [Compound 23.0], the half-inhibitory concentration (IC50) is at least 1.9 nM.

Compound `NC(=O)NN=C1CCC(CC(=O)N2CCC([C@H]3c4ncc(Br)cc4CCc4cc(Cl)cc(Br)c43)CC2)CC1` (some centres unmarked) [Compound 29.0] yielded an IC50 of at least 1.9 nM.

Compound `CS(=O)(=O)N[C@H]1CC[C@@H](C(=O)N2CCC([C@H]3c4ncc(Br)cc4CCc4cc(Cl)cc(Br)c43)CC2)CC1` [Compound 40.0] registered a half-maximal inhibitory concentration (IC50) of at least 1.9 nM.

For the compound `O=C(CN1CCC2(CC1)SCCS2)N1CCC([C@H]2c3ncc(Br)cc3CCc3cc(Cl)cc(Br)c32)CC1` [Compound 28.0], the IC50 is at least 1.9 nM.

Take `O=C([C@H]1CC[C@@H](O)CC1)N1CCC([C@H]2c3ncc(Br)cc3CCc3cc(Cl)cc(Br)c32)CC1` [Compound 70.0]: the IC50 was at least 1.9 nM.

The compound `NC1CCCC(C(=O)N2CCC([C@H]3c4ncc(Br)cc4CCc4cc(Cl)cc(Br)c43)CC2)C1` (some centres unmarked) [Compound 44.0] yielded a concentration for half-maximal inhibition (IC50) of at least 1.9 nM.

As for `O=C1CCCCC1CCC(=O)N1CCC([C@H]2c3ncc(Br)cc3CCc3cc(Cl)cc(Br)c32)CC1` (some centres unmarked) [Compound 19.0], the half-maximal inhibitory concentration (IC50) was at least 1.9 nM.

Turning to `CC(C)(C)OC(=O)NC1CCCC(C(=O)N2CCC([C@H]3c4ncc(Br)cc4CCc4cc(Cl)cc(Br)c43)CC2)C1` (some centres unmarked) [Compound 43.0], the IC50 was at least 1.9 nM.

The compound `NC(=O)C(=O)NC1CCCC(C(=O)N2CCC([C@H]3c4ncc(Br)cc4CCc4cc(Cl)cc(Br)c43)CC2)C1` (some centres unmarked) [Compound 49.1] returned a half-maximal inhibitory concentration (IC50) of at least 1.9 nM.

`CC(C)(C)[Si](C)(C)OCCON=C1CCC(CC(=O)N2CCC([C@H]3c4ncc(Br)cc4CCc4cc(Cl)cc(Br)c43)CC2)CC1` (some centres unmarked) [Compound 32.0] registered an IC50 of at least 1.9 nM.

`O=C(C=C1CCC2(CC1)OCCO2)N1CCC([C@H]2c3ncc(Br)cc3CCc3cc(Cl)cc(Br)c32)CC1` [Compound 21.0]: the IC50 was at least 1.9 nM.

Turning to `O=C(CC1CCC2(CC1)OCCO2)N1CCC([C@H]2c3ncc(Br)cc3CCc3cc(Cl)cc(Br)c32)CC1` [Compound 22.0], the half-inhibitory concentration (IC50) is at least 1.9 nM.

As for `O=C1CCC(C(=O)N2CCC([C@H]3c4ncc(Br)cc4CCc4cc(Cl)cc(Br)c43)CC2)CC1` [Compound 33.0], the concentration for half-maximal inhibition (IC50) was at least 1.9 nM.

With `NC(=O)NC1CCCC(C(=O)N2CCC([C@H]3c4ncc(Br)cc4CCc4cc(Cl)cc(Br)c43)CC2)C1` (some centres unmarked) [Compound 45.0], the IC50 is at least 1.9 nM.

Compound `N[C@H]1CC[C@@H](C(=O)N2CCC([C@H]3c4ncc(Br)cc4CCc4cc(Cl)cc(Br)c43)CC2)CC1` [Compound 37.0] yielded a 50% inhibitory concentration (IC50) of at least 1.9 nM.

In turn, `CON=C1CCN(CC(=O)N2CCC([C@H]3c4ncc(Br)cc4CCc4cc(Cl)cc(Br)c43)CC2)CC1` [Compound 27.0] displayed an IC50 of at least 1.9 nM.

`O=C1CCCCC1CC(=O)N1CCC([C@H]2c3ncc(Br)cc3CCc3cc(Cl)cc(Br)c32)CC1` (some centres unmarked) [Compound 18.0] registered a half-inhibitory concentration (IC50) of at least 1.9 nM.

On to `CC(C)(C)OC(=O)N[C@H]1CC[C@@H](C(=O)N2CCC([C@H]3c4ncc(Br)cc4CCc4cc(Cl)cc(Br)c43)CC2)CC1` [Compound 36.0], for which the IC50 was at least 1.9 nM.

`C[C@]1(CCC(=O)N2CCC([C@H]3c4ncc(Br)cc4CCc4cc(Cl)cc(Br)c43)CC2)CCCCC1=O` [Compound 20.0] yielded a 50% inhibitory concentration (IC50) of at least 1.9 nM.

Take `NC(=O)N[C@H]1CC[C@@H](C(=O)N2CCC([C@H]3c4ncc(Br)cc4CCc4cc(Cl)cc(Br)c43)CC2)CC1` [Compound 38.0]: the half-maximal inhibitory concentration (IC50) is at least 1.9 nM.

As for `CON=C1CCC(CC(=O)N2CCC([C@H]3c4ncc(Br)cc4CCc4cc(Cl)cc(Br)c43)CC2)CC1` (some centres unmarked) [Compound 25.0], the IC50 is at least 1.9 nM.

For `O=C1CCC(=CC(=O)N2CCC([C@H]3c4ncc(Br)cc4CCc4cc(Cl)cc(Br)c43)CC2)CC1` [Compound 16.0], the IC50 is at least 1.9 nM.

As for `CCOC(=O)C(=O)N[C@H]1CC[C@@H](C(=O)N2CCC([C@H]3c4ncc(Br)cc4CCc4cc(Cl)cc(Br)c43)CC2)CC1` [Compound 39.0], the IC50 is at least 1.9 nM.

In turn, `CON=C1CCC(C(=O)N2CCC([C@H]3c4ncc(Br)cc4CCc4cc(Cl)cc(Br)c43)CC2)CC1` (some centres unmarked) [Compound 35.0] registered an IC50 of at least 1.9 nM.

`COc1ccc2c(c1)CC(CC(=O)N1CCC([C@H]3c4ncc(Br)cc4CCc4cc(Cl)cc(Br)c43)CC1)C2=O` (single isomer, unassigned) [Compound 17.0A]: the IC50 was at least 1.9 nM.

Consider `O=C1CCC(CC(=O)N2CCC([C@H]3c4ncc(Br)cc4CCc4cc(Cl)cc(Br)c43)CC2)CC1` [Compound 13.0], for which the IC50 is at least 1.9 nM.

As for `CCOC(=O)C(=O)NC1CCCC(C(=O)N2CCC([C@H]3c4ncc(Br)cc4CCc4cc(Cl)cc(Br)c43)CC2)C1` (some centres unmarked) [Compound 46.0], the IC50 is at least 1.9 nM.

The compound `CC(=O)NN=C1CCC(CC(=O)N2CCC([C@H]3c4ncc(Br)cc4CCc4cc(Cl)cc(Br)c43)CC2)CC1` (some centres unmarked) [Compound 30.0] displayed an IC50 of at least 1.9 nM.

The next experiment concerns COS Cell. In words: COS Cell IC50, cell-based assay (procedure of WO 95/10516).
Conditions: not given
As to the method: as §1
In the case of `CC(=O)O[C@H]1CC[C@@H](C(=O)N2CCC([C@H]3c4ncc(Br)cc4CCc4cc(Cl)cc(Br)c43)CC2)CC1` [Compound 69.0], half-maximal inhibition (IC50) required 30 nM.
